According to patent publication US20240336608A1, “IL4I1 INHIBITORS AND METHODS OF USE” (Merck Sharp & Dohme LLC, priority 2023, published 2024):

Target: T1, recombinant IL4I1 (Homo sapiens, UniProt Q96RQ9)
T1 construct: purchased R&D Systems 5684-AO-020
T1 sequence (Q96RQ9 22-567): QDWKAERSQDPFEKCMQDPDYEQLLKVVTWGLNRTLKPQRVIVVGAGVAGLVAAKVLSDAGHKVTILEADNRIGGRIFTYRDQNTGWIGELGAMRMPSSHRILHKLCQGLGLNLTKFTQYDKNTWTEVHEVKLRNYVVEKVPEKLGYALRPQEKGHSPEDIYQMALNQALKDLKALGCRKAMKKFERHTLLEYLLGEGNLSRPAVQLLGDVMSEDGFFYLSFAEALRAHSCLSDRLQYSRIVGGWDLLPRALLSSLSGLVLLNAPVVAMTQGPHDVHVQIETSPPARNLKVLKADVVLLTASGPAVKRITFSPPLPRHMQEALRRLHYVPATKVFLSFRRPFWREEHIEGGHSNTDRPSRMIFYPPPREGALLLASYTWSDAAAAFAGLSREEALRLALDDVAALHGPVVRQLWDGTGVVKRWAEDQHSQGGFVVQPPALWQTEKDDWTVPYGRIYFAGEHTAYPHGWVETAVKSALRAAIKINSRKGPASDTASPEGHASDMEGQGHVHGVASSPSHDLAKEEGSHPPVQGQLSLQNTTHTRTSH
Assay: IL4I1 Enzymatic Assay (Amplex Red/HRP coupled detection of H2O2, fluorescence)
Assay type: biochemical
Conditions: 1 nM recombinant IL4I1; four-hour pre-incubation with compound; 1 mM each Phe, Tyr, Trp; ten-point titration
In short: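 Recombinant IL4I1 (1 nM final) pre-incubated 4 h at ambient temperature with compound (0.5% DMSO) in 50 mM Hepes pH 7.0, 0.005% Tween20; reaction started with 1 mM each Phe/Tyr/Trp plus excess Amplex Red/HRP, run 120 min. H2O2 read as resorufin fluorescence; EC50 from 10-point four-parameter fit.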

| Compound | EC50 |
| --- | --- |
| Cc1ccc(-n2cc(C(=O)NCc3cc(-c4cccc(Cl)c4)no3)nn2)c(C)n1 [Example 221, N-{[3-(3-chlorophenyl)-1,2-oxazol-5-yl]methyl}-1-(2,6-dimethylpyridin-3-yl)-1H-1,2,3-triazole-4-carboxamide] | 0.722 µM |
| O=C(NCc1nnc(-c2ccccc2)s1)c1cn(CC2CCCC2)nn1 [Example 78, 1-(cyclopentylmethyl)-N-((5-phenyl-1,3,4-thiadiazol-2-yl)methyl)-1H-1,2,3-triazole-4-carboxamide] | 0.034 µM |
| C[C@@H](CO)n1cc(C(=O)NCc2nnc(-c3ccccc3)s2)nn1 [Example 166, (S)-1-(1-hydroxypropan-2-yl)-N-((5-phenyl-1,3,4-thiadiazol-2-yl)methyl)-1H-1,2,3-triazole-4-carboxamide] | 0.009 µM |
| Cc1ccc(-n2cc(C(=O)NCc3nnc(-c4cccnc4)s3)nn2)c(C)n1 [Example 264, 1-(2,6-dimethylpyridin-3-yl)-N-((5-(pyridin-3-yl)-1,3,4-thiadiazol-2-yl)methyl)-1H-1,2,3-triazole-4-carboxamide] | 0.48 µM |
| Cc1ccc(-n2cc(C(=O)NCc3nnc(-c4cn[nH]c4)s3)nn2)c(C)n1 [Example 300, N-((5-(1H-pyrazol-4-yl)-1,3,4-thiadiazol-2-yl)methyl)-1-(2,6-dimethylpyridin-3-yl)-1H-1,2,3-triazole-4-carboxamide] | 0.022 µM |
| Cn1cnc(C(=O)NCc2nnc(-c3ccccc3)s2)c1 [Example 32, 1-methyl-N-((5-phenyl-1,3,4-thiadiazol-2-yl)methyl)-1H-imidazole-4-carboxamide] | 0.077 µM |
| O=C(NCc1nnc(-c2ccccc2)s1)c1cn([C@H]2C[C@@H](O)C2)nn1 [Example 282] | 0.005 µM |
| CC1(n2cc(C(=O)NCc3nnc(-c4ccccc4)s3)nn2)CS(=O)(=O)C1 [Example 178, 1-(3-methyl-1,1-dioxidothietan-3-yl)-N-((5-phenyl-1,3,4-thiadiazol-2-yl)methyl)-1H-1,2,3-triazole-4-carboxamide] | 0.267 µM |
| O=C(NCc1nnc(-c2ccccc2)s1)c1cn(C(F)(F)F)nn1 [Example 274, N-((5-phenyl-1,3,4-thiadiazol-2-yl)methyl)-1-(trifluoromethyl)-1H-1,2,3-triazole-4-carboxamide] | 0.031 µM |
| O=C(NCc1nnc(-c2ccccc2)s1)c1cn(C23CC(C2)C3)nn1 [Example 172, 1-(bicyclo[1.1.1]pentan-1-yl)-N-((5-phenyl-1,3,4-thiadiazol-2-yl)methyl)-1H-1,2,3-triazole-4-carboxamide] | 0.049 µM |
| O=C(NCc1nnc(-c2ccccc2)s1)c1cn(C2CS(=O)(=O)CC2O)nn1 (centres unmarked) [Example 188, 1-(4-hydroxy-1,1-dioxidotetrahydrothiophen-3-yl)-N-((5-phenyl-1,3,4-thiadiazol-2-yl)methyl)-1H-1,2,3-triazole-4-carboxamide] | 0.155 µM |
| CN1CC(n2cc(C(=O)NCc3nnc(-c4ccccc4)s3)nn2)CC1=O (centres unmarked) [Example 183, 1-(1-methyl-5-oxopyrrolidin-3-yl)-N-((5-phenyl-1,3,4-thiadiazol-2-yl)methyl)-1H-1,2,3-triazole-4-carboxamide] | 0.139 µM |
| O=C(NCc1cc(-c2ccccc2)on1)c1cn(CC(F)F)nn1 [Example 292, 1-(2,2-difluoroethyl)-N-((5-phenylisoxazol-3-yl)methyl)-1H-1,2,3-triazole-4-carboxamide] | 0.005 µM |
| O=C(NCc1nnc(-c2ccccc2)s1)c1scc2c1OCCO2 [Example 22, N-[(5-phenyl-1,3,4-thiadiazol-2-yl)methyl]-2,3-dihydrothieno[3,4-b][1,4]dioxine-5-carboxamide] | 0.027 µM |
| C[C@H]1OCC[C@H]1Cn1cc(C(=O)NCc2nnc(-c3ccccc3)s2)nn1 [Example 205, 1-(((2R,3S)-2-methyltetrahydrofuran-3-yl)methyl)-N-((5-phenyl-1,3,4-thiadiazol-2-yl)methyl)-1H-1,2,3-triazole-4-carboxamide] | 0.033 µM |
| O=C(NCc1nnc(-c2ccccc2)s1)c1c[nH]nc1C(F)(F)F [Example 44, N-[(5-phenyl-1,3,4-thiadiazol-2-yl)methyl]-3-(trifluoromethyl)-1H-pyrazole-4-carboxamide] | 0.77 µM |
| COC1CC(n2cc(C(=O)NCc3nnc(-c4ccccc4)s3)nn2)C1 (centres unmarked) [Example 174, 1-(3-methoxycyclobutyl)-N-((5-phenyl-1,3,4-thiadiazol-2-yl)methyl)-1H-1,2,3-triazole-4-carboxamide] | 0.016 µM |
| O=C(NCc1nnc(-c2ccccc2)s1)c1cn(C2(CO)CC2)nn1 [Example 159, 1-(1-(hydroxymethyl)cyclopropyl)-N-((5-phenyl-1,3,4-thiadiazol-2-yl)methyl)-1H-1,2,3-triazole-4-carboxamide] | 0.17 µM |

| Compound | EC50 |
| --- | --- |
| O=C(NCc1nnc(-c2ccccc2)s1)c1cn(CC2(O)COC2)nn1 [Example 140, 1-((3-hydroxyoxetan-3-yl)methyl)-N-((5-phenyl-1,3,4-thiadiazol-2-yl)methyl)-1H-1,2,3-triazole-4-carboxamide] | 0.01 µM |
| Cc1ccc(C(=O)NCc2nnc(-c3ccccc3)s2)[nH]1 [Example 17, 5-methyl-N-[(5-phenyl-1,3,4-thiadiazol-2-yl)methyl]-1H-pyrrole-2-carboxamide] | 0.474 µM |
| Cn1cc(C(=O)NCc2nnc(-c3ccc(Cl)cc3)s2)nn1 [Example 296, N-((5-(4-chlorophenyl)-1,3,4-thiadiazol-2-yl)methyl)-1-methyl-1H-1,2,3-triazole-4-carboxamide] | 0.418 µM |
| CC[C@@H](c1ccc(F)cc1)n1cc(C(=O)NCc2nnc(-c3ccccc3)s2)nn1 [Example 257, (S)-1-(1-(4-fluorophenyl)propyl)-N-((5-phenyl-1,3,4-thiadiazol-2-yl)methyl)-1H-1,2,3-triazole-4-carboxamide] | 0.019 µM |
| Cc1ccc(-n2cc(C(=O)NCc3ccc(-n4nccn4)cn3)nn2)c(C)n1 [Example 216, 1-(2,6-dimethylpyridin-3-yl)-N-{[5-(2H-1,2,3-triazol-2-yl)pyridin-2-yl]methyl}-1H-1,2,3-triazole-4-carboxamide] | 0.326 µM |
| CC(O)c1cc(C(=O)NCc2nnc(-c3ccccc3)s2)on1 (single isomer, unassigned) [Example 330, 3-(1-hydroxyethyl)-N-((5-phenyl-1,3,4-thiadiazol-2-yl)methyl)isoxazole-5-carboxamide] | 0.069 µM |
| CC(NC(=O)c1cn(CC(F)F)nn1)c1nnc(-c2ccccc2)s1 (single isomer, unassigned) [Example 252, 1-(2,2-difluoroethyl)-N-(1-(5-phenyl-1,3,4-thiadiazol-2-yl)ethyl)-1H-1,2,3-triazole-4-carboxamide] | 0.015 µM |
| CCn1cc(C(=O)NCc2nnc(-c3ccccc3)s2)cn1 [Example 43, 1-ethyl-N-[(5-phenyl-1,3,4-thiadiazol-2-yl)methyl]pyrazole-4-carboxamide] | 0.177 µM |
| Cc1ncc(-n2cc(C(=O)NCc3nnc(-c4ccccc4)s3)nn2)c(C)n1 [Example 280, 1-(2,4-dimethylpyrimidin-5-yl)-N-((5-phenyl-1,3,4-thiadiazol-2-yl)methyl)-1H-1,2,3-triazole-4-carboxamide] | 0.859 µM |
| Cc1nonc1C(=O)NCc1nnc(-c2ccccc2)s1 [Example 55, 4-methyl-N-[(5-phenyl-1,3,4-thiadiazol-2-yl)methyl]-1,2,5-oxadiazole-3-carboxamide] | 0.276 µM |
| CC(C)c1cc(C(=O)NCc2nnc(-c3ccccc3)s2)on1 [Example 49, 3-isopropyl-N-[(5-phenyl-1,3,4-thiadiazol-2-yl)methyl]isoxazole-5-carboxamide] | 0.022 µM |
| CCCn1cc(C(=O)NCc2nnc(-c3ccccc3)s2)nn1 [Example 92, N-((5-phenyl-1,3,4-thiadiazol-2-yl)methyl)-1-propyl-1H-1,2,3-triazole-4-carboxamide] | 0.003 µM |
| Cc1ccc(-n2cc(C(=O)NCc3ccc(-c4ccccc4Cl)nn3)nn2)c(C)n1 [Example 119, N-((6-(2-chlorophenyl)pyridazin-3-yl)methyl)-1-(2,6-dimethylpyridin-3-yl)-1H-1,2,3-triazole-4-carboxamide] | 0.482 µM |
| O=C(NCc1nnc(-c2ccccc2)s1)c1cc2n(n1)CCSC2 [Example 34, N-[(5-phenyl-1,3,4-thiadiazol-2-yl)methyl]-6,7-dihydro-4H-pyrazolo[5,1-c][1,4]thiazine-2-carboxamide] | 0.453 µM |
| CC(C)Cc1cc(C(=O)NCc2nnc(-c3ccccc3)s2)no1 [Example 7, 5-isobutyl-N-[(5-phenyl-1,3,4-thiadiazol-2-yl)methyl]isoxazole-3-carboxamide] | 0.008 µM |
| Cc1ccc(-n2cc(C(=O)NCc3nnc(-c4ccc(F)cc4Cl)s3)nn2)c(C)n1 [Example 111, N-((5-(2-chloro-4-fluorophenyl)-1,3,4-thiadiazol-2-yl)methyl)-1-(2,6-dimethylpyridin-3-yl)-1H-1,2,3-triazole-4-carboxamide] | 0.727 µM |
| O=C(NCc1nnc(-c2ccccc2)s1)c1cn(C2(CO)CCC2)nn1 [Example 163, 1-(1-(hydroxymethyl)cyclobutyl)-N-((5-phenyl-1,3,4-thiadiazol-2-yl)methyl)-1H-1,2,3-triazole-4-carboxamide] | 0.104 µM |
